Data set [1] has as its target T1, QC (Homo sapiens, UniProt Q16769). The experiment in a line: Long-term Glu^1-cyclization of Aβ-derived peptides by recombinant human QC, MALDI-TOF. As to conditions: for turnover of glutamate-containing peptide by QC: pH 5.2 and 6.5, respectively; for suppression of [pGlu^3]Aβ3-11a / [pGlu^3]Aβ3-21a formation from Aβ3-11a / Aβ3-21a: 5 mM benzimidazole, pH 5.2 and 6.5. More on the design: The cDNA of the mature QC starting with codon 38 was fused in frame with the plasmid encoded 6×histidine tag; 6xHis; made in house; host or cells: Pichia pastoris X33 (pPICZαB); also E. coli M15 (pQE-31). It counts as biochemical. On the procedure: For long-term testing of Glu^1-cyclization, Aβ-derived peptides were incubated in 100 μl 0.1 M sodium acetate buffer, pH 5.2 or 0.1 M Bis-Tris buffer, pH 6.5 at 30° C. Peptides were applied in 0.5 mM [Aβ3-11a] or 0.15 mM [Aβ3-21a] concentrations, and 0.2 U QC was added all 24 hours.
In case of Aβ3-21a, the assays contained 1% DMSO. At different times, samples were removed from the assay tube, peptides extracted using ZipTips (Millipore) according to the manufacturer's recommendations, mixed with matrix solution (1:1 v/v) and subsequently the mass spectra recorded. Negative controls did either contain no QC or heat deactivated enzyme.
The QC-catalyzed formation of [pGlu^3]Aβ3-11a and [pGlu^3]Aβ3-21a was investigated at pH 5.2 and 6.5, respectively. If the QC-inhibitor benzimidazole was added to the solution before starting the assay by addition of QC, substrate conversion resulting in [pGlu^3]Aβ3-11a or [pGlu^3]Aβ3-21a was suppressed (FIGS. 15E and F). If QC was boiled before addition, formation of the pGlu-peptides was negligible (FIGS. 15A and B).

The target in data set [2] is T1, QC. As to the kind of experiment: Fluorometric assay with pyroglutamyl aminopeptidase as auxiliary enzyme, human QC. As to conditions: H-Gln-AMC as substrate. More on the design: The cDNA of the mature QC starting with codon 38 was fused in frame with the plasmid encoded 6×histidine tag; 6xHis; made in house; host or cells: Pichia pastoris X33 (pPICZαB); also E. coli M15 (pQE-31). It counts as biochemical. From the text:
Excitation/emission wavelengths were 320/410 nm.
(§1) Excitation/emission wavelengths were 380/460 nm.
H-Glu(OMe)-βNA and H-Glu-βNA.

How the values of data set [3] were obtained:
H-Glu(OMe)-βNA and H-Glu-βNA. […] These fluorogenic substrates were analyzed fluorometrically, utilizing pyroglutamyl aminopeptidase as auxiliary enzyme.

Data set [4] concerns the target T1, QC. The experiment in a line: Continuous spectrophotometric assay of QC substrate conversion (glutamate dehydrogenase coupled), human QC.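 Also: initial rates read in microplates at 30 °C, with enzyme activity quantified against an ammonia calibration curve recorded under the same assay conditions.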
Description: The initial velocities were evaluated and the enzymatic activity was determined from a standard curve of ammonia under assay conditions. All samples were measured at 30° C., using either the [sequence]luor Plus or the Sunrise (both from TECAN) reader for microplates. Kinetic data was evaluated using GraFit software.
Data set [5] concerns the target T1, QC. As to the kind of experiment: LC/MS-analysis of pyroglutamate formation by QC. It counts as biochemical.
The target of data set [6] is T2, purified DP IV (porcine kidney) (Sus scrofa, UniProt P22411).
T2 construct: purified DP IV (porcine kidney); from tissue; host or cells: porcine kidney
T2 sequence (P22411 whole entry): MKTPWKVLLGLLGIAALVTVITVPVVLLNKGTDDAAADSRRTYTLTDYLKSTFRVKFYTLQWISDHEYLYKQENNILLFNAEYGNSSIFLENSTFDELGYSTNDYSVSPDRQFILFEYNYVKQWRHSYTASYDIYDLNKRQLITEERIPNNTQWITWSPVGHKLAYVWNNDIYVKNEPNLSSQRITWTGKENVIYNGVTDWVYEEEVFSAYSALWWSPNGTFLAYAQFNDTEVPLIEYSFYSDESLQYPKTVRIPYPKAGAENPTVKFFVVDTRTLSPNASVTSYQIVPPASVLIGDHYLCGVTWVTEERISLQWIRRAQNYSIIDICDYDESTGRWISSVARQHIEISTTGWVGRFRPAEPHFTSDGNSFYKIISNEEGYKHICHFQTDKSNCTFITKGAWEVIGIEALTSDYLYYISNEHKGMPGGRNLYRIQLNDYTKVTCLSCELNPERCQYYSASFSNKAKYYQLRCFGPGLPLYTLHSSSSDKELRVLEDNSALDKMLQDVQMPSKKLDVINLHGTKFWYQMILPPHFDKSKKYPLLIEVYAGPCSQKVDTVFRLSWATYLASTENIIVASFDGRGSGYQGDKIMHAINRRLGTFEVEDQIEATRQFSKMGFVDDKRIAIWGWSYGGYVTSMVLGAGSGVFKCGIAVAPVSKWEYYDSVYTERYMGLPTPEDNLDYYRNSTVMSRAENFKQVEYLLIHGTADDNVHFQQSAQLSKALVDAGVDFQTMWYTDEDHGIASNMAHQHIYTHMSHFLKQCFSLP
The experiment in a line: Cleavage of [Gln^3]Aβ1-11a by DP IV, MALDI-TOF. The class given is biochemical. Here is the method: (§2) Matrix-assisted laser desorption/ionization mass spectrometry was carried out using the Hewlett-Packard G2025 LD-TOF System with a linear time of flight analyzer. […] Samples (5 μl) were mixed with equal volumes of the matrix solution. For matrix solution we used DHAP/DAHC, prepared by solving 30 mg 2′,6′-dihydroxyacetophenone (Aldrich) and 44 mg diammonium hydrogen citrate (Fluka) in 1 ml acetonitrile/0.1% TFA in water (1/1, v/v). A small volume (=1 μl) of the matrix-analyte-mixture was transferred to a probe tip and immediately evaporated in a vacuum chamber (Hewlett-Packard G2024A sample prep accessory) to ensure rapid and homogeneous sample crystallization.

Another data set has as its system mammalian QC. The settings on record: Busby et al. 1987; cited from earlier work.
The target of data set [7] is T1, QC. The experiment in a line: Inhibition and inactivation of human QC by chelators. The class given is biochemical. More on the design: The cDNA of the mature QC starting with codon 38 was fused in frame with the plasmid encoded 6×histidine tag; 6xHis; made in house; host or cells: Pichia pastoris X33 (pPICZαB); also E. coli M15 (pQE-31). The settings on record: for inhibition of human QC catalyzed substrate cyclization: competitive and time-dependent for the chelators.

In a further data set the test system is DP IV and QC. The experiment in a line: Consecutive catalysis of DP IV and QC, crude porcine pituitary homogenate with added DPIV, MALDI-TOF. It counts as biochemical. On the procedure:
as §2

For data set [8], the target named is T1, QC. The experiment in a line: Qualitative substrate conversion by MALDI-TOF mass spectrometry, human QC. The class given is biochemical. More on the design: The cDNA of the mature QC starting with codon 38 was fused in frame with the plasmid encoded 6×histidine tag; 6xHis; made in house; host or cells: Pichia pastoris X33 (pPICZαB); also E. coli M15 (pQE-31). Here is the method:
Matrix-assisted laser desorption/ionization mass spectrometry was carried out using the Hewlett-Packard G2025 LD-TOF System with a linear time of flight analyzer. The instrument was equipped with a 337 nm nitrogen laser, a potential acceleration source (5 kV) and a 1.0 m flight tube. Detector operation was in the positive-ion mode and signals were recorded and filtered using LeCroy 9350M digital storage oscilloscope linked to a personal computer. Samples (5 μl) were mixed with equal volumes of the matrix solution. For matrix solution we used DHAP/DAHC, prepared by solving 30 mg 2′,6′-dihydroxyacetophenone (Aldrich) and 44 mg diammonium hydrogen citrate (Fluka) in 1 ml acetonitrile/0.1% TFA in water (1/1, v/v). […]
In order to further investigate the specificity and selectivity of the QCs, peptides were synthesized comprising either a modified N-terminal glutaminyl residue or a modified amino acid in the second position. […] Due to the cyclization of the glutaminyl residue or its analog, respectively, a mass difference of the substrate and the product of catalysis is detected. In cases of ammonia liberation of one mole per mole of substrate, the conversion was also analyzed quantitatively using the spectrophotometric assay.

For data set [9], the target named is T1, QC. As to the kind of experiment: Inhibitor assay: Ki determination in the human QC catalyzed reaction. More on the design: The cDNA of the mature QC starting with codon 38 was fused in frame with the plasmid encoded 6×histidine tag; 6xHis; made in house; host or cells: Pichia pastoris X33 (pPICZαB); also E. coli M15 (pQE-31). The settings on record: text of example 7. The class given is biochemical.
Excerpt: as §1

[10] abbreviates: Table 1, physiological substrates.
Where [11] appears, read: Table 6, influence of substrate length.
The mark [12] stands for this setting: peptides comprising modified amino acids.

The values below come from US7381537B2, “Use of inhibitors of glutaminyl cyclases for treatment and prevention of disease” (Probiodrug AG, priority 2003, dated 2008).

Entries after “also recorded” stand apart in the source; their conditions may differ. Read-outs that look alike come from different tables or passages of the source. Bridge positions count the residues as written; N and C are the ends. Square brackets hold non-standard residues; d marks the D form. Ends that are not written are not given here. Peptide text beside a SMILES is read from it.

T1 sequence (Q16769 29-361): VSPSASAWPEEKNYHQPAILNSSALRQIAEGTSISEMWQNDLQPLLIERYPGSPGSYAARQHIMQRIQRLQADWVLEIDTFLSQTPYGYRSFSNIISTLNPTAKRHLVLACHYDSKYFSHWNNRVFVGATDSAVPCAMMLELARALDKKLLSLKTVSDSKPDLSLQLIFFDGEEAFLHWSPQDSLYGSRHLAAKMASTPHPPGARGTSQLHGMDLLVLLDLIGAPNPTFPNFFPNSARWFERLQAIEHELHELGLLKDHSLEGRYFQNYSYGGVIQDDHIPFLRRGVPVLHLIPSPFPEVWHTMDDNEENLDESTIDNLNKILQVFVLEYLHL

Consider EFRHDSGYEVHHQKLVFFA-NH2 [Aβ3-21a], for which the “turnover of glutamate-containing peptide by QC” value at QC [1] is listed as “serve as QC-substrates”.
Turning to “H-EFKRLA-NH2 [H-Glu-Phe-Lys-Arg-Leu-Ala-NH2]”, the “inhibition of human QC by the peptide” value at QC [2] is recorded as “not inhibited”.
With `COC(=O)CC[C@H](N)C(=O)Nc1ccc2ccccc2c1` [H-Glu(OMe)-βNA, H-Glu(OMe)-β-naphthylamide], the “stability in Tris and Tricine buffers” value in data set [3] is “remarkable instability”.
For “[Gln^3]-glucagon(3-29): glucagon fragment 3-29 with N-terminal glutamine”, in the data set with QC [4] (in presence of 1% DMSO), the “second order rate constant” value amounted to 526000 M⁻¹ s⁻¹. Further, the kcat/KM with QC [4] (recombinant human QC, buffer solution containing 1% DMSO) worked out at 526000 ± 17000 M⁻¹ s⁻¹. Besides, the “formation of N-terminal pyroglutamate by QC” value with QC [5] was “catalyzed by QC”.
As for DAQFRHDSGYE-NH2 [[Gln^3]Aβ1-11a], the “cleavage by DPIV under formation of [Gln^3]Aβ3-11a” value in data set [6] is listed as “cleaving”.
As to `NC(=O)CC[C@H](N)C(=O)N[C@@H](Cc1c[nH]cn1)C(=O)N1CCC[C@H]1C(N)=O` [[Gln^1]-TRH] (H-Gln-His-Pro-NH2), the Km at QC [4] (setting [10]) is 90 ± 4 µM.
In the case of `NC(=O)CC[C@H](N)C(=O)O` [H-Gln-OH], the kcat/KM entry at QC [4] (Table 5, n.r. = not reactive) was “n.r”.
Take `C[C@H](NC(=O)[C@@H](N)CCC(N)=O)C(N)=O` [H-Gln-Ala-NH2] (H-Gln-Ala-NH2): the Km on QC [4] (setting [11]) came to 155 ± 9 µM.
As to reduced 6-methylpterin, in the data set on mammalian QC, the “inhibition of a mammalian QC” value is recorded as “Inhibition”.
As to `O=C(O)CN(CCN(CC(=O)O)CC(=O)O)CC(=O)O` [EDTA], on QC [7], the “inhibition of human QC catalyzed substrate cyclization” value was “did not show remarkable inhibition”. Further, the “inhibition of a mammalian QC” value in the data set on mammalian QC was “did not inhibit”.
On to “[Gln^1]-GnRH: GnRH with N-terminal glutamine: QHWSYGL RP(G) amide”, for which, in the data set with QC [4] (setting [10]), the kcat/KM is 1.3057e+06 ± 53200 M⁻¹ s⁻¹.
Take `CC(C)[C@H](N)C(=O)N1CCCC1` [Val-Pyrr, Val-Pyrrolidide]: the “[pGlu^3]Aβ3-11a formation from [Gln^3]Aβ1-11a in presence of catalytically active DP IV and QC” value in the data set on DP IV and QC is reported as “not formed; also recorded: reduction”. In addition, the entries for the “prevention of DP IV-catalysed cleavage of [Gln^3]Aβ1-11a” value in data set [6] and in data set [6] (listed as Val-Pyrrolidide) were “completely prevented” and “prevention”, respectively.
In the case of `Oc1cccc2cccnc12` [8-hydroxyquinoline], the “inhibition of human QC catalyzed substrate cyclization” value on QC [7] was “abolished”.
Consider `C[C@H](NC(=O)[C@H](C)NC(=O)[C@@H](N)CCC(N)=O)C(N)=O` [H-Gln-Ala-Ala-NH2] (H-Gln-Ala-Ala-NH2), for which the Km on QC [4] (setting [11]) was 87 ± 3 µM.
For the molecule `COC(=O)CC[C@H](N)C(=O)N[C@@H](Cc1ccccc1)C(=O)N[C@@H](CCCCN)C(=O)N[C@@H](CCCNC(=N)N)C(=O)N[C@@H](CC(C)C)C(=O)N[C@@H](C)C(N)=O` [H-Glu(OMe)-Phe-Lys-Arg-Leu-Ala-NH2] (H-E(OMe)FKRLA-NH2), the “inhibition of human QC by the peptide” value against QC [2] is “not inhibited”.
On to `O=C(O)c1cccc(C(=O)O)n1` [dipicolinic acid], for which the “inhibition of human QC catalyzed substrate cyclization” value at QC [7] is recorded as “abolished”. Further, the “inactivation of human QC after extensive dialysis” value at QC [7] (dialysis against 5 mM) is recorded as “almost completely inactivated”.
With “[Gln^5]-substance P(5-11): substance P fragment 5-11 with N-terminal glutamine (QQFFGLM; ends and bridges not checked)”, the “formation of N-terminal pyroglutamate by QC” value with QC [5] is listed as “transformed by QC”.
Regarding “H-Gln(NMe)-Phe-Lys-Ala-Glu-NH2 (H-[Gln(NMe)]FKAE-NH2; not fully specified; printed as H-Gln(NMe)-Phe-Lys-Ala-Glu-NH2)”, the “inhibition of human QC by the peptide” value with QC [2] was “not detected”. In the data set with QC [8], the “substrate conversion (cyclization) by human QC” value was “No substrate conversion”.
For the molecule `Cc1cc(=O)oc2cc(NC(=O)[C@@H](N)CCC(N)=O)ccc12` [H-Gln-AMC], the kcat/KM at QC [4] (Table 5, n.r. = not reactive) turned out to be 98000 ± 2000 M⁻¹ s⁻¹.
For `CC(C)C[C@H](NC(=O)[C@H](CCCNC(=N)N)NC(=O)[C@H](CCCCNC(=O)[C@@H](N)CCC(N)=O)NC(=O)[C@@H](N)CCC(N)=O)C(=O)N[C@@H](C)C(N)=O` [H-Gln-Lys(Gln)-Arg-Leu-Ala-NH2] (H-QK(Gln)RLA-NH2), the “substrate conversion (cyclization) by human QC” value on QC [8] is listed as “converted”.
With EFRHDSGYE-NH2 [Aβ3-11a], at QC [1], the “turnover of glutamate-containing peptide by QC” value is reported as “serve as QC-substrates”.
For the molecule “H-Gln-cyclo(Nε-Lys-Arg-Pro-Ala-Gly-Phe) (H-QKRPAGF; lactam 2-C; SMILES C[C@@H]1NC(=O)[C@@H]2CCCN2C(=O)[C@H](CCCNC(=N)N)NC(=O)[C@@H](NC(=O)[C@@H](N)CCC(N)=O)CCCCNC(=O)[C@H](Cc2ccccc2)NC(=O)CNC1=O)”, in the data set with QC [4] (setting [12]), the “kcat (turnover number)” value came to 22.8 ± 10.6 s⁻¹ and the kcat/KM-value was 95000 ± 3000 M⁻¹ s⁻¹.
For the molecule `NC(=O)CC[C@H](N)C(=O)N[C@@H](CCC(=O)O)C(=O)N1CCC[C@H]1C(N)=O` [[Gln^1]-FPP] (H-Gln-Glu-Pro-NH2), the Km on QC [4] (setting [10]) is 87 ± 2 µM.
Consider `Cn1cnc(CCN)c1` [1-methyl-4-(β-aminoethyl)-imidazole], for which, at QC [9], the “inhibition of human QC, in words” value was “complete loss of inhibitory activity”.
Turning to `c1ccc2[nH]cnc2c1` [benzimidazole], the “suppression of [pGlu^3]Aβ3-11a / [pGlu^3]Aβ3-21a formation from Aβ3-11a / Aβ3-21a” value is reported as “suppressed” on QC [1] and “suppressing” on QC [1] (listed as Benzimidazole).
